Data as given in patent US20230181541A1, “COMPOSITIONS AND METHODS FOR TREATING OBSESSIVE-COMPULSIVE DISORDER” (Biohaven Therapeutics Ltd., priority 2020, published 2023).
Like-named read-outs stand apart in the source and are kept apart here.

Tested on: OCD patients with inadequate response to standard of care treatment
Settings: for YBOCS Compulsions Subscale Change from Baseline, LS Mean / YBOCS Compulsions Subscale Change from Baseline, Troriluzole vs Placebo Difference Estimate / YBOCS Obsessions Subscale Change from Baseline, LS Mean / YBOCS Obsessions Subscale Change from Baseline, Troriluzole vs Placebo Difference Estimate / YBOCS Total Change from Baseline, Troriluzole vs Placebo Difference Estimate / YBOCS Total Change from Baseline, LS Mean / YBOCS Total Score Change from Baseline, LS Mean: MITT data set, MMRM; for YBOCS Total Score Change from Baseline, LS Mean: only subjects <= median baseline YBOCS total = 26, not validated
Description: In some embodiments of the invention, the individual treated according to the claimed method is assessed using the Yale Brown Obsessive Compulsive Scale (“Y-BOCS”). See Goodman et al., Arch. Gen. Psychiatry, 1989, 46, 1006-1011. According to this system, an individual is scored using a symptom checklist by asking the individual about specific obsessions and compulsions. Such symptoms are broadly categorized as aggressive obsessions, contamination obsessions, sexual obsessions, hoarding/saving obsessions, religious obsessions, obsession with need for symmetry or exactness, miscellaneous obsessions, somatic obsessions, cleaning/washing compulsions, checking compulsions, repeating rituals, counting compulsions, ordering/arranging compulsions, and miscellaneous compulsions. Each of these categories is further divided by subcategory of more specific symptoms. Individuals are scored according to the answers provided. Scores range from 0-7 for subclinical, 8-15 for mild, 16-23 for moderate, 24-31 for severe, and 32-40 for extreme severity.
Subjects receive a dose of 140 mg QD for the first four (4) weeks, and the dose is then increased to 200 mg QD for the duration of the study. Down titration is only allowed to address tolerability issues**. Eligible subjects include those who perceived benefit in earlier phases or for whom the Principal Investigator (PI) believes extended treatment with BHV-4157 would offer an acceptable risk-benefit profile***. Subjects start the Extension phase on the dose that was taken at the end of the Randomization phase. Subjects receiving placebo in the randomization phase are blindly switched to a 140 mg dose QD for the first 4 week, and the dose is then increased to 200 mg QD (at the Week 4 visits). Down titration is only allowed to address tolerability issues. All visits after Week 4 are open-label****.
Subjects who are stable on Standard of Care (SOC) medication and having an inadequate response to SOC are randomized to additionally receive placebo (QD) or troriluzole for 12 weeks (200 mg QD, after four weeks at 140 mg QD). Subjects completing the Randomization Phase are offered approximately 48 weeks of open-label treatment. The study is conducted from December 2017 to June 2020 with 242 subjects randomized at over 56 sites. The full study details are available online at https://clinicaltrials.gov/ct2/show/study/NCT03299166?term=biohaven&cond=Obsessive-Compulsive+Disorder&draw=2&rank=1.
The study involves subjects with a primary diagnosis of OCD as per Diagnostic and Statistical Manual of Mental Disorders, Fifth Edition, as confirmed by the MINI at screening.
Duration of the subject's illness must be equal to or greater than 1 year.
The Clinical Global Impression Score (CGI-S) must be equal to or greater than 4 at screening and baseline.
Subjects are excluded with a history of more than two (2) previous failed treatment trials of SSRIs, clomipramine, venlafaxine, or desvenlafaxine, (not including the current SSRI trial) given for an adequate duration at an adequate dose as defined by the MGH-TRQ-OCD.
Subjects are excluded if they display acute suicidality or suicide attempt or self-injurious behavior in the last 12 months.
Subjects are excluded if they have a Brown Assessment of Beliefs (BABS) score of greater than 17 at screening and baseline.
Use of a stimulant, neuroleptic (antipsychotic), mood stabilizer and glutamate agent (e.g., topiramate, lamotrigine, N-acetylcysteine, ketamine, memantine, sodium valproate) is prohibited within the 4 weeks prior to screening and during the study.
Current daily anxiolytic or benzodiazepine use is prohibited.

[1] = Week 4, only subjects > baseline YBOCS = 26 (median)
[2] = Week 8, only subjects > baseline YBOCS = 26 (median)
[3] = Week 12, only subjects > baseline YBOCS = 26 (median)

## CN(CC(=O)Nc1nc2ccc(OC(F)(F)F)cc2s1)C(=O)CNC(=O)CN [Troriluzole]
200 mg once daily as adjunctive therapy, all study timepoints (weeks 4 to 12)
  Y-BOCS outcome versus placebo (in words): consistent numerical improvement over placebo
Week 4
  YBOCS Compulsions Subscale Change from Baseline, LS Mean: −1.72
  YBOCS Compulsions Subscale Change from Baseline, Troriluzole vs Placebo Difference Estimate: −0.44
  YBOCS Obsessions Subscale Change from Baseline, LS Mean: −1.67
  YBOCS Obsessions Subscale Change from Baseline, Troriluzole vs Placebo Difference Estimate: −0.02
  YBOCS Total Change from Baseline, Troriluzole vs Placebo Difference Estimate: −0.5
  YBOCS Total Score Change from Baseline, LS Mean: −2.8
Week 4, 140 mg QD first 4 weeks then 200 mg QD, added to SOC
  YBOCS Total Change from Baseline, LS Mean: −3.4 points
[1]
  YBOCS Total Change from Baseline, LS Mean: −4.1 points
  YBOCS Total Change from Baseline, Troriluzole vs Placebo Difference Estimate: −0.6
Week 8
  YBOCS Compulsions Subscale Change from Baseline, LS Mean: −2.61
  YBOCS Compulsions Subscale Change from Baseline, Troriluzole vs Placebo Difference Estimate: −1.20
  YBOCS Obsessions Subscale Change from Baseline, LS Mean: −2.50
  YBOCS Obsessions Subscale Change from Baseline, Troriluzole vs Placebo Difference Estimate: −0.36
  YBOCS Total Change from Baseline, Troriluzole vs Placebo Difference Estimate: −1.5
  YBOCS Total Score Change from Baseline, LS Mean: −4.4
Week 8, 140 mg QD first 4 weeks then 200 mg QD, added to SOC
  YBOCS Total Change from Baseline, LS Mean: −5.1 points
[2]
  YBOCS Total Change from Baseline, LS Mean: −6.0 points
  YBOCS Total Change from Baseline, Troriluzole vs Placebo Difference Estimate: −2.9
Week 12
  YBOCS Compulsions Subscale Change from Baseline, LS Mean: −3.01
  YBOCS Compulsions Subscale Change from Baseline, Troriluzole vs Placebo Difference Estimate: −0.64
  YBOCS Obsessions Subscale Change from Baseline, LS Mean: −2.91
  YBOCS Obsessions Subscale Change from Baseline, Troriluzole vs Placebo Difference Estimate: −0.36
  YBOCS Total Change from Baseline, Troriluzole vs Placebo Difference Estimate: −1.0
  YBOCS Total Score Change from Baseline, LS Mean: −5.0
Week 12, 140 mg QD first 4 weeks then 200 mg QD, added to SOC
  YBOCS Total Change from Baseline, LS Mean: −5.9 points
[3]
  YBOCS Total Change from Baseline, LS Mean: −7.0 points
  YBOCS Total Change from Baseline, Troriluzole vs Placebo Difference Estimate: −2.4
In vivo
  safety profile: safe and well tolerated
